Test results taken from PMC8825798 (Communications Biology, 2022).
Where “and” joins values, the source holds several entries; their conditions need not be identical. Identical values can stand only once. Peptide text beside a SMILES is read from it.

Tests used:
[1] = target: αCOPI-WD40 domain (residues 1-327) (Schizosaccharomyces pombe, UniProt Q96WV5, F197K/I192K/L181K/L185K/L196K); assay: biochemical; assay type: binding
[2] = target: T1, sarbecovirus spike hepta-peptide, wild type (1267Gly-Val-Lys-Leu-His-Tyr-Thr1273) (SARS-CoV-2); assay: BLI; conditions: both partners purified
T1 peptide: GVKLHYT

| Molecule | Kd ([1]; Equilibrium KD) | Kd ([1]; Kinetic KD) | koff ([1]; pH 6.5) [s⁻¹] | kon ([1]; pH 6.5) | other results |
| --- | --- | --- | --- | --- | --- |
| CC(C)C[C@H](NC(=O)[C@H](CCCCN)NC(=O)[C@@H](NC(=O)CN)C(C)C)C(=O)N[C@@H](Cc1c[nH]cn1)C(=O)N[C@@H](Cc1ccc(O)cc1)C(=O)N[C@H](C(=O)O)[C@@H](C)O [GVKLHYT] (H-GVKLHYT-OH) | 4170 nM and 1400 nM | 2750 nM and 950 nM | 0.145 ± 0.001 | 152.13 ± 3.45 10^3/Ms | koff ([1]; pH 7.5): 0.25 ± 0.003 s⁻¹; kon ([1]; pH 7.5): 89.96 ± 2.72 10^3/Ms |
| KEVYLHG |  |  |  |  | Binding to αCOPI-WD40 (in words) ([1]; pH 6.5): weak binding |
| VLKTYHG |  |  |  |  | Binding to αCOPI-WD40 (in words) ([1]; pH 7.5): no detectable interaction |
| CC(C)C[C@H](NC(=O)[C@H](CCCCN)NC(=O)[C@@H](NC(=O)CN)C(C)C)C(=O)N[C@@H](Cc1c[nH]cn1)C(=O)N[C@@H](Cc1ccc(O)cc1)C(=O)N[C@@H](CCC(=O)O)C(=O)O [GVKLHYE] (H-GVKLHYE-OH) | 310 ± 10 nM | 380 ± 10 nM | 0.024 ± 0.0003 | 58.96 ± 0.54 10^3/Ms |  |
| CC(C)C[C@H](NC(=O)[C@H](CCCCN)NC(=O)[C@@H](NC(=O)CN)C(C)C)C(=O)N[C@@H](Cc1c[nH]cn1)C(=O)N[C@@H](Cc1ccc(O)cc1)C(=O)N[C@@H](C)C(=O)O [GVKLHYA] (H-GVKLHYA-OH) | 1130 ± 50 nM | 1140 ± 20 nM | 0.076 ± 0.001 | 66.67 ± 0.80 10^3/Ms |  |
| CC(C)C[C@H](NC(=O)[C@H](CCCCN)NC(=O)[C@@H](NC(=O)CN)C(C)C)C(=O)N[C@@H](Cc1c[nH]cn1)C(=O)N[C@@H](Cc1ccc(O)cc1)C(=O)N[C@@H](CCC(N)=O)C(=O)O [GVKLHYQ] (H-GVKLHYQ-OH) | 780 ± 40 nM | 1150 ± 10 nM | 0.066 ± 0.001 | 60.05 ± 0.75 10^3/Ms |  |
| CC(C)C[C@H](NC(=O)[C@H](CCCCN)NC(=O)[C@@H](NC(=O)CN)C(C)C)C(=O)N[C@@H](Cc1c[nH]cn1)C(=O)N[C@@H](Cc1ccc(O)cc1)C(=O)N[C@H](C(=O)O)C(C)C [GVKLHYV] (H-GVKLHYV-OH) | 3200 ± 40 nM | 2060 ± 50 nM | 0.212 ± 0.002 | 102.67 ± 2.61 10^3/Ms |  |
| CC(C)C[C@H](NC(=O)[C@H](CCCCN)NC(=O)[C@@H](NC(=O)CN)C(C)C)C(=O)N[C@@H](Cc1c[nH]cn1)C(=O)N[C@@H](Cc1ccc(O)cc1)C(=O)N[C@@H](CCCNC(=N)N)C(=O)O [GVKLHYR] (H-GVKLHYR-OH) | 1730 ± 240 nM | 1290 ± 40 nM | 0.177 ± 0.001 |  |  |
| GVKLAYT |  |  |  |  | Binding to αCOPI-WD40 (in words) ([1]; pH 6.5): abolished binding |
| CC(C)C[C@H](NC(=O)[C@H](CCCCN)NC(=O)[C@@H](NC(=O)CN)C(C)C)C(=O)N[C@@H](Cc1c[nH]cn1)C(=O)N[C@@H](C)C(=O)N[C@H](C(=O)O)[C@@H](C)O [GVKLHAT] (H-GVKLHAT-OH) | 3770 ± 340 nM | 2320 ± 70 nM | 0.28 ± 0.003 | 120.87 ± 3.39 10^3/Ms |  |
| CC(C)C[C@H](NC(=O)[C@H](CCCCN)NC(=O)[C@@H](NC(=O)CN)C(C)C)C(=O)N[C@@H](CCCCN)C(=O)N[C@@H](Cc1ccc(O)cc1)C(=O)N[C@H](C(=O)O)[C@@H](C)O [GVKLKYT] (H-GVKLKYT-OH) |  | 2710 nM |  |  | koff ([1]; pH 7.5): 0.184 s⁻¹; kon ([1]; pH 7.5): 67.3 ± 1.45 10^3/Ms |
| GVALHYT |  |  |  |  | Binding to αCOPI-WD40 (in words) ([1]; pH 6.5): abolished binding |
| GVALAYT |  |  |  |  | Binding to αCOPI-WD40 (in words) ([1]; pH 6.5): does not demonstrate any substantial binding |
| αCOPI-WD40 domain (residues 1-327) from Schizosaccharomyces pombe (domain or fragment) MEMLTKFESRSSRAKGVAFHPTQPWILTSLHNGRIQLWDYRMGTLLDRFDGHDGPVRGIAFHPTQPLFVSGGDDYKVNVWNYKSRKLLFSLCGHMDYVRVCTFHHEYPWILSCSDDQTIRIWNWQSRNCIAILTGHSHYVMCAAFHPSEDLIVSASLDQTVRVWDISGLRMKNAAPVSMSKEDQKAQAHNSKSNDKKGSTDAIVKFVLEGHDRGVNWCAFHPTLPLILSAGDDRLVKLWRMTASKAWEVDTCRGHFNNVSCCLFHPHQELILSASEDKTIRVWDLNRRTAVQTFRRDNDRFWFITVHPKLNLFAAAHDSGVMVFKLE |  |  |  |  | koff [2]: 0.145 s⁻¹ and 0.25 s⁻¹; kon [2]: 152000 M⁻¹ s⁻¹ and 90000 M⁻¹ s⁻¹ |
